Experimental findings from ChEMBL document CHEMBL3745607, “Optimization of allosteric MEK inhibitors. Part 2: Taming the sulfamide group balances compound distribution properties” (Bioorg Med Chem Lett, 2016) are described below.

SMILES strings stand for the structures.

A short description of data set [1]: Ratio of AUC in brain to plasma in mouse at 5 mg/kg, iv measured for 0 to 3 hrs. To be noted: brain and plasma, read-out: BPR. Type of data set: ADME, organism-based.
Data set [2] relates to A549. Description: Antitumor activity against human A549 cells xenografted in mouse assessed as reduction in tumor area at 1 mg/kg, po qd relative to control. Type of data set: functional.
A further data set concerns the target Carbonic anhydrase 1 (Homo sapiens, UniProt P00915). As to the kind of experiment: Inhibition of human carbonic anhydrase 1.
Data set [3] can be described thus: cells. To be noted: Homo sapiens, HCT-116.
Description: Antiproliferative activity against human HCT116 cells harboring K-Ras G13D mutation
A further data set has as its system A-375. Description: Antiproliferative activity against human A375 cells harboring BRAF(V600E) mutation after 72 hrs by cell titer glow cell titer glow FCTGI assay. The settings on record: A-375, 72 h.
Data set [4] can be described thus: Blood clearance in rat at 0.5 mg/kg, iv or 1 mg/kg, po. Type of data set: ADME, organism-based.
Data set [5] can be described thus: Volume of distribution at steady state in rat at 0.5 mg/kg, iv or 1 mg/kg, po. The settings on record: in vivo, read-out: Vdss. It counts as ADME, organism-based.
Data set [6] in a line: Half life in rat at 0.5 mg/kg, iv or 1 mg/kg, po. Type of data set: ADME, organism-based. To be noted: in vivo.
Data set [7] is described as follows: Oral bioavailability in rat 1 mg/kg. Type of data set: ADME, organism-based. The settings on record: in vivo.
For data set [8], the system named is A549. Description: Antitumor activity against human A549 cells xenografted in mouse assessed as reduction in tumor area at 2 mg/kg, po qd relative to control. Type of data set: functional.
In the next data set the test system is HepG2. Description: cells. The settings on record: Homo sapiens.
Data set [9] is described as follows: cells. To be noted: Homo sapiens, COLO 205.
Description: Antiproliferative activity against human COLO205 cells harboring BRAF mutation
Data set [10] relates to A549. Description: cells. To be noted: Homo sapiens.
Description: Antiproliferative activity against human A549 cells harboring K-Ras mutation
For the next data set, the system named is MCF7. As to the kind of experiment: cells. To be noted: Homo sapiens.
The next data set addresses Carbonic anhydrase 2 (Homo sapiens, UniProt P00918). Description: Inhibition of human carbonic anhydrase 2.
A short description of data set [11]: Half life in rat at 0.5 mg/kg, iv or 5 mg/kg, po. Type of data set: ADME, organism-based. The settings on record: in vivo.
The nature of data set [12]: Oral bioavailability in rat 5 mg/kg. It counts as ADME, organism-based. To be noted: in vivo.

Chain of Carbonic anhydrase 1 (P00915 whole entry): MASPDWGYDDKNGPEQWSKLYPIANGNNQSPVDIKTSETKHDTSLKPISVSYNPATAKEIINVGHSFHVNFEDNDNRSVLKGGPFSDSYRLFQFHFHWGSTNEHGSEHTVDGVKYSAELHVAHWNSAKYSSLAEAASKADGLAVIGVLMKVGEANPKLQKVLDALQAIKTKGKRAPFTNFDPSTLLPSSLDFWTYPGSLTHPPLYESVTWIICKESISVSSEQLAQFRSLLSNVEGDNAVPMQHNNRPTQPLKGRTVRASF
Description for HepG2: Antiproliferative activity against human HepG2 cells harboring N-Ras mutation
Description for MCF7: Antiproliferative activity against human MCF7 cells

On to `NC(=O)c1c(Nc2ccc(I)cc2F)cc(F)cc1Oc1cccc(NS(N)(=O)=O)c1`, for which, in data set [1], the Kp is < 0.02. In addition, the T/C in the data set on A549 [2] is 0.15. Moreover, the figures for the IC50 against Carbonic anhydrase 1 and in “cells [3]” were 4.8 µM and 0.18 µM, respectively.

In the data set “cells [3]”, `NC(=O)c1c(Nc2ccc(I)cc2F)cc(F)cc1Oc1cccc(CS(N)(=O)=O)c1` came in with an IC50 of 3.5 µM.

Molecule `NC(=O)c1c(Nc2ccc(I)cc2F)cc(F)cc1Oc1ccc(Cl)c(NS(N)(=O)=O)c1` displayed an IC50 in the data set on A-375 of 0.483 µM.

For `NC(=O)c1c(Oc2cccc(CS(N)(=O)=O)c2)cc(F)c(F)c1Nc1ccc(I)cc1F`, the IC50 came to 0.011 µM with A-375 and 0.303 µM in the data set “cells [3]”.

For `NC(=O)c1c(Oc2ccc(F)c(NS(N)(=O)=O)c2F)cc(F)c(F)c1Nc1ccc(I)cc1F`, the IC50 in the data set with A-375 was 0.032 µM; in “cells [3]” it was 2.95 µM.

As for `NC(=O)c1c(Nc2ccc(I)cc2F)cc(F)cc1Oc1ccccc1NS(N)(=O)=O`, the IC50 in the data set on A-375 amounted to 0.065 µM; in “cells [3]”, 2.4 µM.

As to `NC(=O)c1c(Nc2ccc(I)cc2F)cc(F)cc1Oc1cccc(F)c1NS(N)(=O)=O`, inhibition in the data set on A-375 was half-maximal at 0.138 µM (IC50).

In the data set on A-375, `NC(=O)c1c(Nc2ccc(I)cc2F)cc(F)cc1Oc1ccc2c(c1)N(S(N)(=O)=O)CCO2` returned an IC50 of 0.339 µM.

In the case of `CCOc1ccc(Oc2cc(F)cc(Nc3ccc(I)cc3F)c2C(N)=O)cc1NS(N)(=O)=O`, in the data set on A-375, the half-inhibitory concentration (IC50) came out at 0.977 µM.

Regarding `CCS(=O)(=O)Nc1cccc(Oc2c(F)c(F)cc(Nc3ccc(I)cc3F)c2C(N)=O)c1`, the IC50 turned out to be 0.004 µM in the data set with A-375 and 0.081 µM in the data set “cells [3]”.

In the data set with A-375, `NC(=O)c1c(Nc2ccc(I)cc2F)cc(F)cc1Oc1ccc(F)c(NS(N)(=O)=O)c1F` registered an IC50 of 0.374 µM.

Take `NC(=O)c1c(Nc2ccc(I)cc2F)cc(F)cc1Oc1cccc(NS(N)(=O)=O)c1Br`: the values for the IC50 in the data set with A-375 and in “cells [3]” were 0.008 µM and 0.152 µM, respectively.

As to `NC(=O)c1c(Oc2ccc(F)c(NS(N)(=O)=O)c2)cc(F)c(F)c1Nc1ccc(I)cc1F`, the IC50 with A-375 was 0.013 µM; in “cells [3]”, 0.277 µM; with HepG2, 0.002 µM; in “cells [9]”, 0.042 µM; with A549 [10] it was 0.314 µM; in the data set on MCF7, > 10 µM. Also, the clearance in data set [4] is 0.333 mL/min/kg. In addition, the Vd in data set [5] worked out at 0.5 L/kg. Moreover, the half-life in data set [6] is 26 h. Further, the bioavailability in [7] is 84%. Further, in data set [1], the Kp is < 0.02. In the data set on A549 [8], the T/C stood at 0.21.

In the case of `NCCS(=O)(=O)Nc1cccc(Oc2cc(F)cc(Nc3ccc(I)cc3F)c2C(N)=O)c1`, the IC50 with A-375 is 0.088 µM; against Carbonic anhydrase 2 it was > 10 µM; in “cells [3]” it was 1.8 µM.

As to `NC(=O)c1c(Oc2cccc(CNS(N)(=O)=O)c2)cc(F)c(F)c1Nc1ccc(I)cc1F`, the IC50 in the data set on A-375 was 0.004 µM; in the data set “cells [3]”, 0.124 µM; with HepG2 it was 0.005 µM; in the data set “cells [9]” it was 0.009 µM; in the data set with A549 [10] it was 0.185 µM; with MCF7 it was > 10 µM. For the same molecule, the clearance in data set [4] is 1.17 mL/min/kg. For the same molecule, the Vd in data set [5] is 1.9 L/kg. For the same molecule, the half-life in [6] was 32 h. The molecule also yielded a bioavailability in data set [7] of 78%. For the same molecule, in data set [1], the Kp is < 0.02. In addition, in the data set with A549 [2], the T/C was found to be 0.13.

In the case of `COc1cc(NS(N)(=O)=O)cc(Oc2cc(F)cc(Nc3ccc(I)cc3F)c2C(N)=O)c1`, in the data set with A-375, the IC50 was 0.922 µM.

Consider `NC(=O)c1c(Oc2cccc(NS(N)(=O)=O)c2)cc(F)c(F)c1Nc1ccc(I)cc1F`, for which the IC50 came out at 0.002 µM in the data set on A-375 and 0.05 µM in “cells [3]”.

On to `NC(=O)c1c(Nc2ccc(I)cc2F)cc(F)cc1Oc1cccc(CNS(N)(=O)=O)c1`, for which the IC50 in the data set with A-375 was 0.035 µM; in “cells [3]” it was 0.757 µM.

For `Cc1c(NS(N)(=O)=O)cccc1Oc1cc(F)c(F)c(Nc2ccc(I)cc2F)c1C(N)=O`, the IC50 turned out to be 0.0002 µM in the data set on A-375 and 0.002 µM in the data set “cells [3]”.

For `CCS(=O)(=O)Nc1cccc(Oc2cc(F)c(F)c(Nc3ccc(I)cc3F)c2C(N)=O)c1`, the values for the IC50 in the data set on A-375 and in “cells [3]” were 0.0024 µM and 0.065 µM, respectively.

Regarding `CCNS(=O)(=O)Nc1cccc(Oc2cc(F)cc(Nc3ccc(I)cc3F)c2C(N)=O)c1`, the IC50 in the data set on A-375 was < 0.03 µM; in “cells [3]”, 0.287 µM.

For the molecule `Cc1c(NS(N)(=O)=O)cccc1Oc1cc(F)cc(Nc2ccc(I)cc2F)c1C(N)=O`, the IC50 with A-375 came out at 0.002 µM; in the data set “cells [3]” it was 0.009 µM.

As for `CN(C)S(=O)(=O)Nc1cccc(Oc2cc(F)c(F)c(Nc3ccc(I)cc3F)c2C(N)=O)c1`, the IC50 with A-375 was 0.006 µM; in “cells [3]”, 0.042 µM.

As to `NC(=O)c1c(Nc2ccc(I)cc2F)cc(F)cc1Oc1cccc(NS(N)(=O)=O)c1Cl`, the values for the IC50 in the data set with A-375 and in “cells [3]” were 0.006 µM and 0.087 µM, respectively.

In the case of `NC(=O)c1c(Nc2ccc(I)cc2F)cc(F)cc1Oc1ccc(F)c(NS(N)(=O)=O)c1`, the IC50 in the data set on A-375 turned out to be 0.09 µM; in the data set “cells [3]”, 2.51 µM.

Regarding `Cc1ccc(NS(N)(=O)=O)cc1Oc1cc(F)cc(Nc2ccc(I)cc2F)c1C(N)=O`, the concentration for half-maximal inhibition (IC50) in the data set on A-375 worked out at 0.57 µM.

For the molecule `CC(NS(N)(=O)=O)c1cccc(Oc2cc(F)cc(Nc3ccc(I)cc3F)c2C(N)=O)c1` (configuration not stated), the figures for the IC50 with A-375 and in the data set “cells [3]” were 0.024 µM and 0.731 µM, respectively.

As to `Cc1ccc(Oc2cc(F)cc(Nc3ccc(I)cc3F)c2C(N)=O)cc1NS(N)(=O)=O`, the IC50 with A-375 turned out to be 0.18 µM. This lies in the sub-micromolar range.

On to `COc1ccc(Oc2cc(F)cc(Nc3ccc(I)cc3F)c2C(N)=O)cc1NS(N)(=O)=O`, for which half-maximal inhibition with A-375 (IC50) required 0.731 µM. Compared with the last molecule, the IC50 is about 4.1-fold higher.

`Cc1cccc(Oc2cc(F)cc(Nc3ccc(I)cc3F)c2C(N)=O)c1NS(N)(=O)=O` came in with an IC50 in the data set on A-375 of 0.218 µM.

The molecule `Cn1cnc2c(F)c(Nc3ccc(Br)cc3Cl)c(C(=O)NOCCO)cc21` [SELUMETINIB] showed a half-life in data set [11] of 4.1 h. For the same molecule, in data set [12], the bioavailability amounted to 24%. Also, the results for the IC50 in the data set “cells [3]”, in “cells [9]” and in the data set with MCF7 were 3 µM, 0.069 µM and > 10 µM, respectively.
